Experimental data published in patent publication US9808003B2, “Herbicidally active 2-(substituted-phenyl)-cyclopentane-1,3-dione compounds and derivatives thereof” (Syngenta Limited, priority 2013, dated 2017).

How the values were obtained:
Type in all cases: in vivo
Poa annua (POAAN) = assay: Test 1B glasshouse assay, post-emergence herbicidal activity against grassy weeds; conditions: 14 DAA
How it was run: (§1)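 Herbicide applied post-emergence at rates such as 60 g/ha (±50 g/ha cloquintocet-mexyl) or 90 and 120 g/ha (with safener), rates varying per compound. Plants kept at 22/16 °C, watered twice daily; percentage phytotoxicity scored visually after 14 days.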

Avena fatua (AVEFA) [1] = assay: as above; conditions: 14 DAA
How it was run: as §1

[2] = tested on: Alopecurus myosuroides (ALOMY); assay: as above; conditions: 14 DAA
How it was run: as §1

[3] = tested on: Lolium multiflorum (LOLMU); assay: as above; conditions: 14 DAA
How it was run: as §1

Setaria viridis (SETVI) = assay: as above; conditions: 14 DAA
How it was run: as §1

Spring Wheat “Freya” = assay: Test 1B glasshouse assay, post-emergence herbicidal activity against cereal crops
[4] = tested on: Spring Barley “Harrington”; assay: as above; conditions: for Post-emergence herbicidal activity against cereal crops, percentage phytotoxicity, Spring Barley “Harrington”: 14 DAA
How it was run: (§2)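 Visual percentage damage (100% = total, 0% = none) read 14 days after application, averaged over two replicates. Plants grown 14 days at 22/16 °C day/night before post-emergence spraying of unformulated compound (IF50/acetone, 0.5% v/v Adigor). Rates usually 60–120 g/ha; cloquintocet-mexyl 50 g/ha co-applied where stated.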

Winter Wheat “Hereward” = assay: as above; conditions: for Post-emergence herbicidal activity against cereal crops, percentage phytotoxicity, Winter Wheat “Hereward”: 14 DAA
How it was run: as §2

Winter Barley “Suzuka” = assay: as above; conditions: for Post-emergence herbicidal activity against cereal crops, percentage phytotoxicity, Winter Barley “Suzuka”: 14 DAA
How it was run: as §2

Avena fatua (AVEFA) [5] = assay: Test 1A glasshouse assay, post-emergence herbicidal activity; conditions: Avena fatua, 312 h, application rate 250 g/ha, 13 days after application, visual (100%=total damage; 0%=no damage), read-out: Post-emergence Herbicidal Activity (% Phytotoxicity) AVEFA
How it was run: (§3)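 Read-out is visual percent phytotoxicity 13 days post-spray, 100% meaning total plant damage and 0% none. Seedlings were treated after 8 days' glasshouse cultivation with an aqueous spray of active ingredient in acetone/water 50:50 plus 0.5% Tween 20.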

Lolium perenne (LOLPE) [6] = assay: as above; conditions: Lolium perenne, 312 h, application rate 250 g/ha, 13 days after application, visual (100%=total damage; 0%=no damage), read-out: Post-emergence Herbicidal Activity (% Phytotoxicity) LOLPE
How it was run: as §3

[7] = tested on: Alopecurus myosuroides (ALOMY); assay: as above; conditions: Alopecurus myosuroides, 312 h, application rate 250 g/ha, 13 days after application, visual (100%=total damage; 0%=no damage), read-out: Post-emergence Herbicidal Activity (% Phytotoxicity) ALOMY
How it was run: as §3

[8] = tested on: Echinochloa crus-galli (ECHCG); assay: as above; conditions: Echinochloa crus-galli, 312 h, application rate 250 g/ha, 13 days after application, visual (100%=total damage; 0%=no damage), read-out: Post-emergence Herbicidal Activity (% Phytotoxicity) ECHCG
How it was run: as §3

Avena fatua (AVEFA) [9] = assay: Test 1A glasshouse assay, pre-emergence herbicidal activity; conditions: 312 h, 250 g/ha, 13 days after application, read-out: Pre-emergence herbicidal activity (% phytotoxicity) AVEFA
Procedure: (§4) Seeds of a variety of test species were sown in standard soil in pots. After cultivation for one day (pre-emergence) or after 8 days cultivation (post-emergence) under controlled conditions in a glasshouse (at 24/16° C., day/night; 14 hours light; 65% humidity), the plants were sprayed with an aqueous spray solution derived from the formulation of the technical active ingredient in acetone/water (50:50) solution containing 0.5% Tween 20 (polyoxyethelyene sorbitan monolaurate, CAS RN 9005-64-5). The test plants were then grown under controlled conditions in a glasshouse (at 24/16° C., day/night; 14 hours light; 65% humidity) and watered twice daily. 13 days after application of the test herbicide, for pre- and post-emergence, the test was evaluated visually for percentage phytotoxicity to the plant (where 100%=total damage to plant; 0%=no damage to plant).
(§5) Test plants: Lolium perenne (LOLPE), Alopecurus myosuroides (ALOMY), Echinochloa crus-galli (ECHCG), and Avena fatua (AVEFA); these are all grassy monocotyledonous weeds.

Lolium perenne (LOLPE) [10] = assay: as above; conditions: 312 h, 250 g/ha, 13 days after application, read-out: Pre-emergence herbicidal activity (% phytotoxicity) LOLPE
Procedure: as §4, §5

[11] = tested on: Alopecurus myosuroides (ALOMY); assay: as above; conditions: 312 h, 250 g/ha, 13 days after application, read-out: Pre-emergence herbicidal activity (% phytotoxicity) ALOMY
Procedure: as §4, §5

[12] = tested on: Echinochloa crus-galli (ECHCG); assay: as above; conditions: 312 h, 250 g/ha, 13 days after application, read-out: Pre-emergence herbicidal activity (% phytotoxicity) ECHCG
Procedure: as §4, §5

Spring Wheat “Teal” = assay: Test 1B glasshouse assay, post-emergence herbicidal activity against cereal crops; conditions: 14 DAA
How it was run: as §2

[13] = 30 g/ha herbicide, 50 g/ha cloquintocet-mexyl
[14] = 60 g/ha herbicide, 0 g/ha cloquintocet-mexyl
[15] = 60 g/ha herbicide, 50 g/ha cloquintocet-mexyl
[16] = herbicide 30 g/ha, cloquintocet-mexyl 50 g/ha
[17] = herbicide 60 g/ha, cloquintocet-mexyl 0 g/ha
[18] = herbicide 60 g/ha, cloquintocet-mexyl 50 g/ha

Row | SMILES | Post-emergence herbicidal activity, percentage phytotoxicity, POAAN (Poa annua (POAAN); [13]) | Post-emergence herbicidal activity, percentage phytotoxicity, POAAN (Poa annua (POAAN); [14]) | Post-emergence herbicidal activity, percentage phytotoxicity, POAAN (Poa annua (POAAN); [15]) | Post-emergence herbicidal activity, percentage phytotoxicity, AVEFA (Avena fatua (AVEFA) [1]; [13]) | Post-emergence herbicidal activity, percentage phytotoxicity, AVEFA (Avena fatua (AVEFA) [1]; [14]) | Post-emergence herbicidal activity, percentage phytotoxicity, AVEFA (Avena fatua (AVEFA) [1]; [15]) | Post-emergence herbicidal activity, percentage phytotoxicity, ALOMY [2, 13] | Post-emergence herbicidal activity, percentage phytotoxicity, ALOMY [2, 14] | Post-emergence herbicidal activity, percentage phytotoxicity, ALOMY [2, 15] | Post-emergence herbicidal activity, percentage phytotoxicity, LOLMU [3, 13] | Post-emergence herbicidal activity, percentage phytotoxicity, LOLMU [3, 14] | Post-emergence herbicidal activity, percentage phytotoxicity, LOLMU [3, 15] | Post-emergence herbicidal activity, percentage phytotoxicity, SETVI (Setaria viridis (SETVI); [13]) | Post-emergence herbicidal activity, percentage phytotoxicity, SETVI (Setaria viridis (SETVI); [14]) | Post-emergence herbicidal activity, percentage phytotoxicity, SETVI (Setaria viridis (SETVI); [15]) | pest or weed control at 250 g/ha (Avena fatua (AVEFA) [5]) | pest or weed control at 250 g/ha (Lolium perenne (LOLPE) [6]) | pest or weed control at 250 g/ha [7] | pest or weed control at 250 g/ha [8] | inhibition at 250 g/ha (Avena fatua (AVEFA) [9]) | other results
1 | Cc1cc(C)c(C2C(=O)CC(CCNC(=O)c3cc(Cl)ccn3)C2=O)c(C)c1 (racemic) [Compound A23] | 0% | 0% | 0% | 13% | 80% | 70% | 28% | 75% | 78% | 48% | 90% | 83% | 95% | 99% | 99% | 90% | 90% | 90% | 100% | 80% | Percentage Phytotoxicity Spring Wheat “Freya” (Spring Wheat “Freya”; [16]): 5%; Percentage Phytotoxicity Spring Wheat “Freya” (Spring Wheat “Freya”; [17]): 63%; Percentage Phytotoxicity Spring Wheat “Freya” (Spring Wheat “Freya”; [18]): 7%; Percentage Phytotoxicity Spring Barley “Harrington” [4, 16]: 1%; Percentage Phytotoxicity Spring Barley “Harrington” [4, 17]: 75%; Percentage Phytotoxicity Spring Barley “Harrington” [4, 18]: 5%; Percentage Phytotoxicity Winter Wheat “Hereward” (Winter Wheat “Hereward”; [16]): 0%; Percentage Phytotoxicity Winter Wheat “Hereward” (Winter Wheat “Hereward”; [17]): 68%; Percentage Phytotoxicity Winter Wheat “Hereward” (Winter Wheat “Hereward”; [18]): 0%; Percentage Phytotoxicity Winter Barley “Suzuka” (Winter Barley “Suzuka”; [16]): 0%; Percentage Phytotoxicity Winter Barley “Suzuka” (Winter Barley “Suzuka”; [17]): 70%; Percentage Phytotoxicity Winter Barley “Suzuka” (Winter Barley “Suzuka”; [18]): 15%; inhibition at 250 g/ha (Lolium perenne (LOLPE) [10]): 100%; inhibition at 250 g/ha [11]: 90%; inhibition at 250 g/ha [12]: 100%
2 | CCc1cc(-n2cc(Cl)cn2)cc(C)c1C1C(=O)CC(CCNC(=O)c2ccccn2)C1=O (stereo not shown) [Compound A87, N-[2-[3-[4-(4-chloropyrazol-1-yl)-2-ethyl-6-methyl-phenyl]-2,4-dioxo-cyclopentyl]ethyl]pyridine-2-carboxamide] | 75% | 83% | 83% | 100% | 100% | 100% | 70% | 97% | 95% | 100% | 100% | 100% | 73% | 93% | 95% | 100% | 100% | 100% | 100% | 90% | Post-emergence herbicidal activity against cereal crops, percentage phytotoxicity, Spring Barley “Harrington” [4, 13]: 0%; Post-emergence herbicidal activity against cereal crops, percentage phytotoxicity, Spring Barley “Harrington” [4, 14]: 73%; Post-emergence herbicidal activity against cereal crops, percentage phytotoxicity, Spring Barley “Harrington” [4, 15]: 60%; Post-emergence herbicidal activity against cereal crops, percentage phytotoxicity, Winter Wheat “Hereward” (Winter Wheat “Hereward”; [13]): 23%; Post-emergence herbicidal activity against cereal crops, percentage phytotoxicity, Winter Wheat “Hereward” (Winter Wheat “Hereward”; [14]): 43%; Post-emergence herbicidal activity against cereal crops, percentage phytotoxicity, Winter Wheat “Hereward” (Winter Wheat “Hereward”; [15]): 33%; Post-emergence herbicidal activity against cereal crops, percentage phytotoxicity, Spring Wheat “Teal” (Spring Wheat “Teal”; [13]): 18%; Post-emergence herbicidal activity against cereal crops, percentage phytotoxicity, Spring Wheat “Teal” (Spring Wheat “Teal”; [14]): 48%; Post-emergence herbicidal activity against cereal crops, percentage phytotoxicity, Spring Wheat “Teal” (Spring Wheat “Teal”; [15]): 38%; Post-emergence herbicidal activity against cereal crops, percentage phytotoxicity, Winter Barley “Suzuka” (Winter Barley “Suzuka”; [13]): 3%; Post-emergence herbicidal activity against cereal crops, percentage phytotoxicity, Winter Barley “Suzuka” (Winter Barley “Suzuka”; [14]): 83%; Post-emergence herbicidal activity against cereal crops, percentage phytotoxicity, Winter Barley “Suzuka” (Winter Barley “Suzuka”; [15]): 60%; inhibition at 250 g/ha (Lolium perenne (LOLPE) [10]): 100%; inhibition at 250 g/ha [11]: 100%; inhibition at 250 g/ha [12]: 100%
